# According to patent US11400059B2, “Treatment of pain and/or pain related symptoms associated with dysmenorrhea” (ALYRA BIOTECH PTY LTD, priority 2017, dated 2022):
# What was measured:
# Assay type in all cases: cell-based
# hNOD1 = biological target: T1, hNOD1 (Homo sapiens, UniProt Q9Y239); assay: Human NLR antagonist screening, NF-κB SEAP reporter in HEK293 cells; conditions: antagonist mode, Ami 1 μM, +C12-iE-DAP 100 ng/mL, No Sample 10, Control− 1
# T1 construct: expressed in transfected cells; host or cells: HEK293
# T1 sequence (Q9Y239 1-953): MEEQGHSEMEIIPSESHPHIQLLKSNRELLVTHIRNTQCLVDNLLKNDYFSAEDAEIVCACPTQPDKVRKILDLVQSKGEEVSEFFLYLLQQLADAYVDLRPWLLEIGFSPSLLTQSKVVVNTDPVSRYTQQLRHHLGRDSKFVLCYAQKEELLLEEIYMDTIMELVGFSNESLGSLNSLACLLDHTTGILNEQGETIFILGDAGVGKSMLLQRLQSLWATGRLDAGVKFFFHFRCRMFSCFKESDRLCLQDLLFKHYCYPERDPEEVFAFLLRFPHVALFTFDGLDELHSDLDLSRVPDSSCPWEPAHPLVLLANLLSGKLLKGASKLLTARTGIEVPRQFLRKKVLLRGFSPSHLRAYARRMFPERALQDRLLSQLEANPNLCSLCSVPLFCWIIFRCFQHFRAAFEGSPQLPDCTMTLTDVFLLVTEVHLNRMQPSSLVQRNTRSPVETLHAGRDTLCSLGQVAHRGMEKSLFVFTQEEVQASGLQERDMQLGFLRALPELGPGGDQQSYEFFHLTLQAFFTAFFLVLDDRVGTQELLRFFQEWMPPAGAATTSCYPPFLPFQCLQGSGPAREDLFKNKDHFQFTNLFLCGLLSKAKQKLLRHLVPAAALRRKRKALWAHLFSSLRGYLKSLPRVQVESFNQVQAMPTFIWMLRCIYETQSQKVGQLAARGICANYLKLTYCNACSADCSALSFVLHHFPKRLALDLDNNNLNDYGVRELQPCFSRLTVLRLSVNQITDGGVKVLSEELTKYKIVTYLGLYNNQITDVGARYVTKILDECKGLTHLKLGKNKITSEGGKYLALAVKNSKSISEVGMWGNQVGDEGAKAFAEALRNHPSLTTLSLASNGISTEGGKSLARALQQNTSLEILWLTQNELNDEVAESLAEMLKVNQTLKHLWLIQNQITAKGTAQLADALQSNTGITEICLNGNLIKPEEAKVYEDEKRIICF
# Description: (§1) Toll-Like Receptor (TLR), NOD-Like Receptor (NLR) and C-Type Lectin Receptor (CLR) stimulation were tested by assessing NF-κB activation in HEK293 cells expressing a given TLR, NLR or CLR. The activity of the test articles was tested at one concentration and compared to control ligands. These steps were performed in triplicate. hNOD1: C12-iE-DAP at 1 μg/mL Antagonist: 100 ng/mL. In a 96-well plate (200 μL total volume) containing the appropriate cells (50,000-75,000 cells/well), 20 μL of the test article or the positive control ligand was added to the wells. For the antagonist assay, the test article was incubated with the cells, at 37° C. with 5% CO2, for 30 minutes prior to the addition of the positive control ligand to the wells. The media added to the wells was designed for the detection of NF-κB induced SEAP expression. After a 16-24 hr incubation the optical density (OD) was read at 650 nm on a Molecular Devices SpectraMax 340PC absorbance detector. Fold induction (ratio of average induced value to average non-induced value) was determined for each TLR, NOD1, NOD2, Dectin-1a, Dectin-1b.
# human Mincle = biological target: T2, human Mincle (Homo sapiens, UniProt Q9ULY5); assay: Human CLR antagonist screening, NF-κB SEAP reporter in HEK293 cells; conditions: antagonist mode, Ami 1 μM, +TDB 5 μg/mL, No Sample 6, Control− 1
# T2 construct: expressed in transfected cells; host or cells: HEK293
# Description: Toll-Like Receptor (TLR), NOD-Like Receptor (NLR) and C-Type Lectin Receptor (CLR) stimulation were tested by assessing NF-κB activation in HEK293 cells expressing a given TLR, NLR or CLR. The activity of the test articles was tested at one concentration and compared to control ligands. These steps were performed in triplicate.
# hMincle: Trehalose-6,6-dibehenate (TDB) at 10 μg/mL Antagonist: 5 μg/mL.
# In a 96-well plate (200 μL total volume) containing the appropriate cells (50,000-75,000 cells/well), 20 μL of the test article or the positive control ligand was added to the wells. For the antagonist assay, the test article was incubated with the cells, at 37° C. with 5% CO2, for 30 minutes prior to the addition of the positive control ligand to the wells. The media added to the wells was designed for the detection of NF-κB induced SEAP expression. After a 16-24 hr incubation the optical density (OD) was read at 650 nm on a Molecular Devices SpectraMax 340PC absorbance detector.
# Human Dectin-1a = biological target: T3, Human Dectin-1a (Homo sapiens, UniProt Q9BXN2); assay: as above; conditions: antagonist mode, Ami 1 μM
# T3 construct: expressed in transfected cells; host or cells: HEK293
# T3 sequence (Q9BXN2 1-247): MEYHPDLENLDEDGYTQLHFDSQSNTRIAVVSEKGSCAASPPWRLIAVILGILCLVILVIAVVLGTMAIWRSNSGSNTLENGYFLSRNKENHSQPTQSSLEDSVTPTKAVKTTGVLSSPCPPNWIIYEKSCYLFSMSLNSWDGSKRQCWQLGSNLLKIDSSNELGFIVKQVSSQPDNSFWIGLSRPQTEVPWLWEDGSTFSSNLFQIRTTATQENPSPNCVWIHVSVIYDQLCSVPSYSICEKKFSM
# Description: as §1, with “triplicate. hDectin-1a and hDectin-1b: WGP Soluble (0-glucan from S. cerevisiae)” for “triplicate. hNOD1: C12-iE-DAP”, “at 10 ng/mL Antagonist: 5 ng/mL. Curdlan at 100 μg/mL. Antagonist: 100 μg/mL. Zymosan Depleted (hot alkali treated S. cerevisiae) at 5” for “at 1”, “Antagonist: 3 μg/mL.” for “Antagonist: 100 ng/mL.”
# T2 sequence (Q9ULY5 whole entry): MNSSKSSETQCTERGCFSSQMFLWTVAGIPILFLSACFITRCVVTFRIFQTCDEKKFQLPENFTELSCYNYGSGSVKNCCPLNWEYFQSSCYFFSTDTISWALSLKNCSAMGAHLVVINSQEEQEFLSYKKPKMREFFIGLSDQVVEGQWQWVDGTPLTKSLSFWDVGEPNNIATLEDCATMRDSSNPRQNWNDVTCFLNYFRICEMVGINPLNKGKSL
compound,measurement,setting,value
CN(C)CCC=C1c2ccccc2CCc2ccccc21 [Amitriptyline],Fold Induction,hNOD1,slight inhibitory effect
same,Fold Induction,hNOD1; listed as Ami,9
same,Fold Induction,human Mincle,slight inhibitory effect
same,Fold Induction,human Mincle; listed as Ami,5
same,Fold Induction,"Human Dectin-1a; +Curdlan 100 μg/mL, No Sample 5, Control− 1",slight inhibitory effect
same,Fold Induction,"Human Dectin-1a; +Curdlan 100 μg/mL, No Sample 5, Control− 1, listed as Ami",4
same,Fold Induction,"Human Dectin-1a; +WGP Soluble 5 ng/mL, No Sample 8, Control− 1",8
same,Fold Induction,"Human Dectin-1a; +Zymosan Depleted 3 μg/mL, No Sample 6, Control− 1",slight inhibitory effect
same,Fold Induction,"Human Dectin-1a; +Zymosan Depleted 3 μg/mL, No Sample 6, Control− 1, listed as Ami",4
